Assay results as given in a melting point compilation (Tetko et al.).
Residues, ends and D or L forms follow the SMILES beside them. *: point of attachment. Boc = CC(C)(C)OC(=O)*

| SMILES | melting point |
| --- | --- |
| O=C1COc2c(F)cc(Br)cc21 | 102 to 104 °C |
| O=C(O)c1cnn(-c2cccc(C(F)(F)F)c2)c1C1CC1 | 172 to 174 °C |
| CC1=CC=CC(=C2Nc3cc(F)ccc3N2C(C)C)C1=N | 185 to 187 °C |
| COc1cc(C)ccc1C(=O)CBr | 77 to 79 °C |
| Cc1cc(-c2nnc(CCl)o2)c(C)o1 | 62 to 64 °C |
| Cc1cccc(-c2nc(C(=O)O)c(C)[nH]2)c1 | 149 to 151 °C |
| Cc1cc(C)c(C)c(Oc2c(C#N)c(C)nn2C)c1 | 69 to 71 °C |
| Cc1cc(Br)cn2c3c(nc12)CCNC3 | 165 to 167 °C |
| CC(C)(C)OC(=O)NCC(=O)NCC(=O)O (Boc-Gly-Gly-OH) | 119 to 121 °C |
| N#Cc1c(N)nc2n1CCS2 | 216 to 218 °C |
| CC(Oc1ccc(C=CC(=O)O)cc1F)c1ccccc1 (stereo unspecified) | 168 to 170 °C |
| CNC(=O)c1ccn(-c2ccc(N)cc2)n1 | 152 to 154 °C |
| CCOC(=O)N1CCC(NC(N)=O)CC1 | 203 to 205 °C |
| O=S(=O)(Cl)c1c(Cl)ccc2c(Cl)ccnc12 | 155 to 157 °C |
| O=C(Cc1nc2ccccc2s1)Nc1ccc(Cl)cc1 | 164 to 166 °C |
| Cc1cccn2cc(-c3ccc(N)cc3)nc12 | 161 to 163 °C |
| Nc1ccnn1Cc1ccc(Br)s1 | 83 to 85 °C |
| Cc1nc(C2(NC(=O)CCl)CCCCC2)no1 | 93 to 95 °C |
| Nc1nncc(-c2ccccc2F)n1 | 204 to 206 °C |
| N#CCC(=O)Nc1ncccn1 | 159 to 161 °C |
| Cc1nc2c(c(C)nn2C)c(C)c1CCC(=O)O | 211 to 213 °C |
| CCc1ccc(S(=O)(=O)O)cc1N | 268 to 270 °C |
| Fc1ccc2oc(Cl)nc2c1 | 33 to 35 °C |
| CC1(c2ccc(C(F)(F)F)cc2)NC(=O)NC1=O (stereo unspecified) | 169 to 171 °C |
| OC1CCc2ccc(F)cc21 (stereo unspecified) | 41 to 43 °C |
| NCc1nnn[nH]1 | 269 to 271 °C |

| SMILES | melting point |
| --- | --- |
| CCOc1c(Cl)cc(C(=O)O)cc1OC | 116 to 118 °C |
| O=Cc1c[nH]nc1-c1ccccc1F | 114 to 116 °C |
| Cc1cc2ccccc2nc1Br | 94 to 96 °C |
| Cn1cnnc1Sc1ccc(Br)cc1N | 144 to 146 °C |
| COc1ccc(-c2nnc(S)o2)cc1 | 202 to 204 °C |
| COC(=O)c1cc(N)cc([N+](=O)[O-])c1 | 159 to 161 °C |
| Cc1ccc(-n2c(C)cc(CC(=O)O)c2C)cc1 | 50 to 52 °C |
| c1ccc(-c2nc[nH]n2)cc1 | 117 to 119 °C |
| CS(=O)(=O)c1ccc(C(=O)NN)cc1 | 189 to 191 °C |
| N#CCc1nc2scc(-c3ccccc3)c2c(=O)[nH]1 | 279 to 281 °C |
| O=C(O)c1nnn(-c2ccccc2)c1C1CC1 | 174 to 176 °C |
| CC1CC(=O)N(Cc2ccccc2)c2ccccc2N1 (stereo unspecified) | 110 to 112 °C |
| NS(=O)(=O)c1ccc(OCc2ccccc2Cl)cc1 | 179 to 181 °C |
| Cc1cc(C)cc(OCCN(C)C(=O)CCl)c1 | 70 to 72 °C |
| CCOC(=O)c1ccc2c(c1)NC(=O)C(C)N2 (stereo unspecified) | 181 to 183 °C |
| CCOC(=O)COc1ccc(C(C)=O)cc1 | 52 to 54 °C |
| O=c1cc(-c2cccc(Cl)c2)[nH]c(=O)[nH]1 | 248 to 250 °C |
| CCOc1ccc(Cl)nn1 | 60 to 62 °C |
| O=[N+]([O-])c1ccc(-c2noc(C(F)F)n2)cc1 | 76 to 78 °C |
| Oc1ccc(Cl)cc1-c1cc(-c2ccco2)[nH]n1 | 166 to 168 °C |
| Cc1cc(NC(=O)C2CC2)sc1C(=O)O | 184 to 186 °C |
| CC(=O)N(c1ccc(C)cc1)c1nc(C=O)cs1 | 166 to 168 °C |
| O=C(O)c1ccc(CN(Cc2ccccc2)S(=O)(=O)c2ccc(Cl)cc2)cc1 | 203 to 205 °C |
| O=C(O)C=Cc1cn(-c2ccccc2)nc1-c1cc2ccccc2o1 | 225 to 227 °C |
| O=C(O)C1CC(=O)N(Cc2ccccc2)C1 (stereo unspecified) | 140 to 144 °C |
| Cc1csc(=O)[nH]1 | 98 to 100 °C |

| SMILES | melting point |
| --- | --- |
| Cc1ccc(CNC(=O)c2ccccc2NC(=O)CCl)cc1 | 150 to 152 °C |
| COc1ccc(CNc2ccc3[nH]c(=O)[nH]c3c2)cc1 | 254 to 256 °C |
| Cc1ccc(C2NCC(CCl)O2)cc1 (stereo unspecified) | 60 to 64 °C |
| Cc1cc(C)nc(NCc2cccc(C(=O)O)c2)n1 | 224 to 226 °C |
| NS(=O)(=O)c1ccc(Cl)c(C(=O)O)c1 | 219 to 221 °C |
| NC(=O)c1ccoc1 | 174 to 176 °C |
| COc1ccc(NC(=O)c2c(N)sc3c2CCCC3)cc1 | 158 to 160 °C |
| O=C(O)C1CCCN1C(=O)c1cc(Cl)cc(Cl)c1 (stereo unspecified) | 162 to 164 °C |
| OCc1cnc(-c2ccccc2)s1 | 72 to 74 °C |
| Cc1ccccc1C(N)CO (stereo unspecified) | 99 to 101 °C |
| Cc1cc(C)c(N=C=S)c(Cl)c1 | 55 to 57 °C |
| CCN(CC)c1ccc(NC(=O)CCl)cc1 | 141 to 143 °C |
| Nc1ncn(-c2ccncc2)n1 | 213 to 215 °C |
| CCc1oc(C(=O)O)cc1C | 133 to 135 °C |
| O=C(O)CCN1C(=O)Cc2ccccc2C1=O | 148 to 150 °C |
| OCc1ccc(-n2ccnc2)nc1 | 128 to 130 °C |
| N#Cc1ccc(S(=O)(=O)Cl)cc1Cl | 51 to 53 °C |
| O=[N+]([O-])c1ccc(F)cc1NC1CC1 | 69 to 71 °C |
| O=C1COc2ccc(Cl)cc2N1 | 211 to 213 °C |
| CC(C)c1ccc(NC(=S)NN)cc1 | 179 to 181 °C |
| Cc1nnc(Sc2ccc(N)c(C)c2)s1 | 142 to 144 °C |
| Oc1cccc(Oc2ncccn2)c1 | 192 to 194 °C |
| Cn1cc(Br)cc1C(=O)NC1CC1 | 112 to 114 °C |
| Nc1nc(-c2cccs2)cs1 | 136 to 138 °C |
| NCc1cccc(CN2CCCC(C(N)=O)C2)c1 (stereo unspecified) | 104 to 106 °C |
| O=C(Nc1cccc(N2CCOC2=O)c1)OCC(F)(F)F | 152 to 154 °C |

| SMILES | melting point |
| --- | --- |
| O=C(O)Cn1c(-c2ccccc2Cl)nc2ccccc21 | 276 to 278 °C |
| CC1(C)CCC(=CC(=O)O)CC1 | 88 to 90 °C |
| OCc1noc(-c2ccc(F)cc2)n1 | 96 to 98 °C |
| NS(=O)(=O)C1CCOC1 (stereo unspecified) | 85 to 87 °C |
| COc1ccccc1NS(=O)(=O)c1cc(N)ccc1N1CCCCC1 | 169 to 171 °C |
| CC(C)(C)C(=O)NCc1ccc(C(=O)CCl)s1 | 102 to 104 °C |
| O=C(O)c1cc(Cl)cc(Cl)n1 | 93 to 95 °C |
| Cc1cc(C)c(C(=O)O)c(=O)[nH]1 | 234 to 236 °C |
| Nc1onc(C2CCC2)c1-c1ccc2c(c1)OCO2 | 96 to 98 °C |
| O=C(O)CSc1ccccc1[N+](=O)[O-] | 166 to 168 °C |
| N#Cc1cc2ccccc2nc1Cl | 163 to 165 °C |
| CNS(=O)(=O)CC1CCCN1 (stereo unspecified) | 91 to 93 °C |
| CC(=O)Nc1ccc2c(CCl)cc(=O)oc2c1 | 190 to 195 °C |
| Nc1c([N+](=O)[O-])c(=O)oc2ccccc12 | 259 to 261 °C |
| C=CCS(N)(=O)=O | 31 to 33 °C |
| N#CCSc1ccc(C(=O)O)cc1 | 269 to 271 °C |
| O=c1c2ccccc2nc(S)n1-c1ccc(Cl)cc1 | 336 to 338 °C |
| CC(C)CC(N)C(O)c1cccs1 (stereo unspecified) | 63 to 65 °C |
| Nc1ncc(Cc2ccccc2)s1 | 106 to 108 °C |
| CCCS(=O)(=O)Nc1cc(N)c(F)cc1F | 95 to 97 °C |
| O=C(O)c1cnn(-c2cccc(Cl)c2)c1 | 204 to 206 °C |
| Cc1ncsc1C(=O)Cl | 62 to 64 °C |
| COc1ccc(CCN2C(=O)NC(=O)C2=O)cc1 | 179 to 181 °C |
